Active and inactive are the calls of the source. The calls are words filed in the database; no cut-off is given here.
How the values were obtained:
Cholinesterase = Cholinesterase (Equus caballus, UniProt P81908); experiment: Inhibition of horse serum BChE after 2 mins by Ellman's reaction
[1] = biological target: Cholinesterase (Equus caballus) (UniProt P81908); experiment: Inhibition of horse serum BChE at 7.2 mM after 2 mins by Ellman's reaction
[2] = biological target: Cholinesterase (Equus caballus) (UniProt P81908); experiment: Inhibition of horse serum BChE at 14.8 mM after 2 mins by Ellman's reaction
[3] = biological target: Cholinesterase (Equus caballus) (UniProt P81908); experiment: Inhibition of horse serum BChE at 65.1 uM after 2 mins by Ellman's reaction

Chain of Cholinesterase (Equus caballus) (P81908 whole entry): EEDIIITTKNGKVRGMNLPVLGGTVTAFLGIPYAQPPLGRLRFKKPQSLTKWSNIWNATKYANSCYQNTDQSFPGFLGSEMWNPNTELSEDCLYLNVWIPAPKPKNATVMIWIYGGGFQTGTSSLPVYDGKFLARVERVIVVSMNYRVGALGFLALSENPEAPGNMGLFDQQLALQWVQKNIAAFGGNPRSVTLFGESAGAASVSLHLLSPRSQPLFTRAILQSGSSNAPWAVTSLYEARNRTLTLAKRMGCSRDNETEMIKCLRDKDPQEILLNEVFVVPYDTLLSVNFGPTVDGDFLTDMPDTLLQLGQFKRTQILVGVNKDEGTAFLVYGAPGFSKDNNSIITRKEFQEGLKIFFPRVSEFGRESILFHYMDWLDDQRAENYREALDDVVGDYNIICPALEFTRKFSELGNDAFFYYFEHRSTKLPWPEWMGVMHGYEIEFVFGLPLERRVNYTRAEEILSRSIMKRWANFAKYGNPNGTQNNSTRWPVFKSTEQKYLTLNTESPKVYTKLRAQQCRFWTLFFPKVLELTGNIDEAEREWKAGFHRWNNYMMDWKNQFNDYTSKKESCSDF
Chain of Cholinesterase (P81908 whole entry): as above

Molecule `C/C(=C\COc1c2ccoc2cc2oc(=O)ccc12)CC[C@@H](O)C(C)(C)O` has an IC50 (Cholinesterase) of 15.4 µM.
Work on `C/C(=C\COc1c2ccoc2cc2oc(=O)ccc12)CC[C@@H](OC(=O)CC(C)(O)CC(=O)OC[C@H]1O[C@@H](OC(C)C)[C@H](O)[C@@H](O)[C@@H]1O)C(C)(C)O` (stereo partly drawn) [CITRUSOSIDE B] yielded an IC50 (Cholinesterase) of 339 µM.
With `CC(C)O[C@@H]1O[C@H](CO)[C@@H](O)[C@H](OC(=O)CC(C)(O)CC(=O)O[C@H](COc2c3ccoc3cc3oc(=O)ccc23)C(C)(C)O)[C@H]1O` (stereo partly drawn) the inhibition [1] was “inactive”.
`CC(C)=CCC/C(C)=C/COc1c2ccoc2cc2oc(=O)ccc12` was tested, and the inhibition [2] was “inactive”.
For `COC(C)(C)[C@H](O)CC/C(C)=C/COc1c2ccoc2cc2oc(=O)ccc12`, the IC50 (Cholinesterase) was 11.2 µM.
For `CC(C)=CCOc1c2ccoc2cc2oc(=O)ccc12` [ISOIMPERATORIN], the IC50 (Cholinesterase) was 23.1 µM.
Molecule `CC(C)=CCC[C@@H](C)C/C=C/C(=O)OC[C@H]1O[C@@H](OC(C)C)[C@H](O)[C@@H](O)[C@@H]1O` [CITRUSOSIDE A] has an IC50 (Cholinesterase) of 376 µM.
`CC(C)(O)[C@H](O)COc1c2ccoc2cc2oc(=O)ccc12` gave an inhibition [3] of 24.6%.
